Series [1] addresses T1, MMP-2FL (gelatinase A full length enzyme) (Homo sapiens, UniProt P08253).
T1 construct: MMP-2FL (gelatinase A full length enzyme)
T1 sequence (P08253 110-660): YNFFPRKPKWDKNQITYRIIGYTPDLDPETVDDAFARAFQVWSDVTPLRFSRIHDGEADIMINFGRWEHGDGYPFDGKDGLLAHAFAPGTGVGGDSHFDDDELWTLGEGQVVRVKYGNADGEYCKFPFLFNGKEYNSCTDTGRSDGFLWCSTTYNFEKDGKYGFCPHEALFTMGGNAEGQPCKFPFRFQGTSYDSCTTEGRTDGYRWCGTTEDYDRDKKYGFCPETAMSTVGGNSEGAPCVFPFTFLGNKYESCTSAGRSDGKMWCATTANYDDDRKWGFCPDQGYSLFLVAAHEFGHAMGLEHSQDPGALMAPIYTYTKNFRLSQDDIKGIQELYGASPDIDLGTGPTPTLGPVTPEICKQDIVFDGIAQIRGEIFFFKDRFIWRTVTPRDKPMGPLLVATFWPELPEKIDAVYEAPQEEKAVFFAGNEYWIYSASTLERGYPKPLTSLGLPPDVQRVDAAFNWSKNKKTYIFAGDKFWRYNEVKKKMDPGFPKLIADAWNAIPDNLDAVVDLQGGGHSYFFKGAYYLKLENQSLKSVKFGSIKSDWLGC
Kind of series: MMP inhibition, thiopeptolide substrate assay. The conditions noted are these: thiopeptolide substrate Ac-Pro-Leu-Gly-thioester-Leu-Leu-Gly-OEt. The class given is biochemical. Here is the method: (§1) Experiments were carried out with the full-length and catalytic domains of the proteinases. […] IC50 values were determined using a thiopeptolide substrate, Ac-Pro-Leu-Gly-thioester-Leu-Leu-Gly-OEt (Ye Q.-Z., Johnson L. L., Hupe D. J., and Baragi V., “Purification and Characterization of the Human Stromelysin Catalytic Domain Expressed in Escherichia coli,” Biochemistry, 1992;31:11231-11235; Ye Q.-Z., Johnson L. L., Yu A. E., and Hupe D., “Reconstructed 19 kDa catalytic domain of gelatinase A is an active proteinase,” Biochemistry, 1995;34:4702-4708.) MMP-13CD was expressed from a synthetic gene and purified from Escherichia coli cell culture according to a previously described method (Ye Q.-Z., Johnson L. L., and Baragi V., “Gene synthesis and expression in E. coli for PUMP, a human matrix metalloproteinase,” Biochemical and Biophysical Research Communications, 1992; 186:143-149).

Series [2] concerns the target T2, MMP-7FL (matrilysin full length enzyme) (Homo sapiens, UniProt P09237).
T2 construct: MMP-7FL (matrilysin full length enzyme)
T2 sequence (P09237 95-267): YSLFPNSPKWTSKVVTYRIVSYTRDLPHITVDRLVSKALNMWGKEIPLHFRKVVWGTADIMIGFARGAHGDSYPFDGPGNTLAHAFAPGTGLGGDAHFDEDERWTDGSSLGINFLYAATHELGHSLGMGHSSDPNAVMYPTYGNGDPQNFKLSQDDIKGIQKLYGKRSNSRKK
The experiment in a line: MMP inhibition, thiopeptolide substrate assay. The conditions noted are these: thiopeptolide substrate Ac-Pro-Leu-Gly-thioester-Leu-Leu-Gly-OEt. It counts as biochemical. As for the experimental part: as §1

Series [3] addresses MMP-2CD (gelatinase A catalytic domain) (Homo sapiens, UniProt P08253). Kind of series: MMP inhibition, thiopeptolide substrate assay. The class given is biochemical. The conditions noted are these: thiopeptolide substrate Ac-Pro-Leu-Gly-thioester-Leu-Leu-Gly-OEt. Here is the method: as §1
The target in series [4] is T3, MMP-13CD (collagenase-3 catalytic domain) (Homo sapiens, UniProt P45452).
T3 construct: MMP-13CD (collagenase-3 catalytic domain); made in house; host or cells: Escherichia coli
Kind of series: MMP inhibition, thiopeptolide substrate assay. The class given is biochemical. The conditions noted are these: thiopeptolide substrate Ac-Pro-Leu-Gly-thioester-Leu-Leu-Gly-OEt; catalytic domain expressed in Escherichia coli from a synthetic gene. Here is the method: as §1

The target of series [5] is T4, MMP-1FL (collagenase-1 full length enzyme) (Homo sapiens, UniProt P03956).
T4 construct: MMP-1FL (collagenase-1 full length enzyme)
T4 sequence (P03956 100-469): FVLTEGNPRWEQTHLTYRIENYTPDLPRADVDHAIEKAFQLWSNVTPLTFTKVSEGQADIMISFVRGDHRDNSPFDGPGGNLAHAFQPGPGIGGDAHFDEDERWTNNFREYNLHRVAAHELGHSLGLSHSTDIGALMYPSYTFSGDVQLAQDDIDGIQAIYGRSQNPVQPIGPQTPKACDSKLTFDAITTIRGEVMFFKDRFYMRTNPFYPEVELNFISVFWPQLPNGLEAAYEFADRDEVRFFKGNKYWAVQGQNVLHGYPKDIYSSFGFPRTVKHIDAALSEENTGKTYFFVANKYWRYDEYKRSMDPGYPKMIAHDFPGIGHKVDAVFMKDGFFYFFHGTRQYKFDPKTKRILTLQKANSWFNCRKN
The experiment in a line: MMP inhibition, thiopeptolide substrate assay. The class given is biochemical. The conditions noted are these: thiopeptolide substrate Ac-Pro-Leu-Gly-thioester-Leu-Leu-Gly-OEt. Here is the method:
as §1

The target of series [6] is T5, MMP-3CD (stromelysin-1 catalytic domain) (Homo sapiens, UniProt P08254).
T5 construct: MMP-3CD (stromelysin-1 catalytic domain)
The experiment in a line: MMP inhibition, thiopeptolide substrate assay. The conditions noted are these: thiopeptolide substrate Ac-Pro-Leu-Gly-thioester-Leu-Leu-Gly-OEt. It counts as biochemical. As for the experimental part: as §1

Series [7] has as its target T6, MMP-14CD (membrane-type MMP-1) (Homo sapiens, UniProt P50281).
T6 construct: Experiments were carried out with the full-length and catalytic domains of the proteinases
Kind of series: MMP inhibition, thiopeptolide substrate assay. The conditions noted are these: thiopeptolide substrate Ac-Pro-Leu-Gly-thioester-Leu-Leu-Gly-OEt; catalytic domain. The class given is biochemical. Here is the method: as §1

For series [8], the target named is T7, MMP-9-FL (gelatinase B full length enzyme) (Homo sapiens, UniProt P14780).
T7 construct: MMP-9-FL (gelatinase B full length enzyme)
The experiment in a line: MMP inhibition, thiopeptolide substrate assay. The class given is biochemical. The conditions noted are these: thiopeptolide substrate Ac-Pro-Leu-Gly-thioester-Leu-Leu-Gly-OEt. As for the experimental part:
as §1

T5 sequence (P08254 100-272 limits assumed): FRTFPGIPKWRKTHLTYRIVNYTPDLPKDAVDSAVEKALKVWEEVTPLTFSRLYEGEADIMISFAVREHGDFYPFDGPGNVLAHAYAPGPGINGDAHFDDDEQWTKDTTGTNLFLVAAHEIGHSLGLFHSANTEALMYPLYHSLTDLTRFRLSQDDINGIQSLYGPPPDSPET
Sequence of MMP-2CD (gelatinase A catalytic domain) (P08253 with tags, fused parts or gaps DEL222-396): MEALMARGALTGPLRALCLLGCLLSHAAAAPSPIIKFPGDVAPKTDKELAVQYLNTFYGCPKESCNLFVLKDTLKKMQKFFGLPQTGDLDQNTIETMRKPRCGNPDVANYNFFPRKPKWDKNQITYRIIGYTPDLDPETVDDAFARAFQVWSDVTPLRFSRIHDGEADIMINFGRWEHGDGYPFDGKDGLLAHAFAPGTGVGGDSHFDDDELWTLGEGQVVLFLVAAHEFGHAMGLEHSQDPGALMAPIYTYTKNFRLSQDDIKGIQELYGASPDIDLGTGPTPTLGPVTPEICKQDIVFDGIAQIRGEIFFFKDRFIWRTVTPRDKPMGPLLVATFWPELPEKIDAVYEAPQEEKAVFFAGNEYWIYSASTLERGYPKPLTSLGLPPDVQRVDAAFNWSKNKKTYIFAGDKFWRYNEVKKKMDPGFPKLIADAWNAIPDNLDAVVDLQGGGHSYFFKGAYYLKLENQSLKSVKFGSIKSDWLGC
T7 sequence (P14780 94-707): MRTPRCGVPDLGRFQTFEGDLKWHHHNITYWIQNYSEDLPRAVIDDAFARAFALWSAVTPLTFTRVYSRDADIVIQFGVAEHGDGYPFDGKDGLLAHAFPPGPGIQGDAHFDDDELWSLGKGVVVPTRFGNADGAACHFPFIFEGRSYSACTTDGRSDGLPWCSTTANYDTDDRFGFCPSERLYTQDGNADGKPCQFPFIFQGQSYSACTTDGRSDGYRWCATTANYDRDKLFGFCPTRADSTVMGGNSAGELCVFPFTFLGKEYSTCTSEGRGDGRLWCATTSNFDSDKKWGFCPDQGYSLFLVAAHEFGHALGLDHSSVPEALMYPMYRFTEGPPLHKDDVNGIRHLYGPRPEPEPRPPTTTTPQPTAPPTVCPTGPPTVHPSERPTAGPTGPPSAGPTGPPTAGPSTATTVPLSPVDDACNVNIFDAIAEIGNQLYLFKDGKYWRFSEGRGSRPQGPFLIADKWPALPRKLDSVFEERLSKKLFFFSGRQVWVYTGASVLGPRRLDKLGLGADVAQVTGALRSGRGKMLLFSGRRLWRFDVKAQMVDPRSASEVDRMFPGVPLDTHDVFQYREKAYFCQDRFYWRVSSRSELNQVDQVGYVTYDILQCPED

Take `O=C(CC(CCCc1ccccc1)C(=O)O)c1ccc2c3c(oc2c1)CCCC3` (stereo not shown) [Example 2, 2-[2-Oxo-2-(6,7,8,9-tetrahydro-dibenzofuran-3-yl)-ethyl]-5-phenyl-pentanoic acid]: the IC50 in [1] is 0.445 µM; in series [2], 84 µM; in [3] it was 0.096 µM; in [4], 9.7 µM; in [5], 67 µM; in series [6] it was 0.13 µM. Moreover, the IC50 in series [7] worked out at 0.82 µM.

For `CN1C(=O)N(CC(CC(=O)c2ccc3c4c(oc3c2)CCCC4)C(=O)O)C(=O)C1(C)C` (stereo not shown) [Example 3, 4-Oxo-4-(6,7,8,9-tetrahydro-dibenzofuran-3-yl)-2-(3,4,4-trimethyl-2,5-dioxo-imidazolidin-1-ylmethyl)-butyric acid], the IC50 worked out at 14 µM in series [8]; 0.945 µM in series [1]; 86 µM in series [2]; 0.0585 µM in series [3]; 1.42 µM in series [4]; 31 µM in [5]. Further, the IC50 is 0.315 µM in series [6] and 2 µM in series [7].

In turn, `O=C(O)CCC(=NO)c1ccc2c3c(oc2c1)CCCC3` [Example 1, 4-Hydroxyimino4-(6,7,8,9-tetrahydro-dibenzofuran-3-yl)-butyric acid] showed a melting point of 164 °C. For the same compound, half-maximal inhibition in series [8] (IC50) was put at 32 µM. In addition, the IC50 in [1] came to 0.0595 µM. In addition, the IC50 in series [3] is 0.0183 µM. This compound returned an IC50 in series [4] of 1.21 µM. In addition, 0.114 µM corresponded to half-maximal inhibition in series [6] (IC50). This compound came in with an IC50 in series [7] of 0.24 µM.
